Test results published in US9790252B2, “2-fluorinated riboses and arabinoses and methods of use and synthesis” (CORNELL UNIVERSITY, priority 2009, dated 2017).

Test system: HEK293 cells
Experiment: Ribo-F-NR dose response in HEK293 cells (MTT)
Assay type: cell-based
Conditions: 12 hours; for absorbance: 570 nm
Method: 1. HEK293 cells were seeded in 96-well plate at a density of 10,000 cells/well the day before the experiment starts;
2. After the cells reach 50˜60% confluency, media was taken out, and 100 μL of fresh media was added to each well;
3. Ribo-F-NR (stock concentration=5.53 mM) were plated at 11, 22, 27, 44, 55, 83 and 111 μM (in triplicates) concentrations;
4. After 12 hours' incubation at 37° C., the media was taken out, 100 μL of fresh media was added to each well along with 20 μL of 5 mg/mL of MTT solution (in PBS);
5. After 1.5 hours' incubation at 37° C., media was taken out and 100 μL of DMSO was added to each well, the plate was mixed on shaker for 5 mins;
6. Absorbance was measured at 570 nm.

With NC(=O)c1ccc[n+]([C@@H]2O[C@H](CO)C(O)[C@@H]2F)c1 (stereo partly drawn) [ribo-F-NR, 1-(2-deoxy-2-fluoro-D-ribofuranosyl)-nicotinamide] the relative viability (HEK293, 11 μM) was 0.8067, the absorbance (HEK293, 11 μM) was 0.1041 and the relative viability (HEK293, 22 μM) was 0.652. The absorbance (HEK293, 22 μM) was 0.08411, the relative viability (HEK293, 27 μM) was 0.4806 and the absorbance (HEK293, 27 μM) was 0.062. For the same compound, the relative viability (HEK293, 44 μM) was 0.2539, the absorbance (HEK293, 44 μM) was 0.03275 and the relative viability (HEK293, 55.3 μM) was 0.1163. For the same compound, the absorbance (HEK293, 55.3 μM) was 0.015, the relative viability (HEK293, 83 μM) was 0.04651 and the absorbance (HEK293, 83 μM) was 0.006. It also gave a relative viability (HEK293, 111 μM) of 0.008358 and an absorbance (HEK293, 111 μM) of 0.001078.
